We go through eleven compounds from patent US20260347372A1, “SMALL MOLECULE INHIBITORS OF KRAS G12D MUTANT” (MERCK SHARP & DOHME LLC, priority 2023, published 2026).

A value given as a limit tells only on which side of the number the result lay.

Assay [1] deals with KRAS G12D (Homo sapiens, UniProt P01116, G12D). The assay can be described thus: SOS-catalyzed nucleotide exchange assay, KRAS G12D (Procedure A). Particulars: guanine nucleotide exchange (GNE). The format is biochemical. The source says: (§1) Procedure for SOS-Catalyzed Nucleotide Exchange Assay for KRAS-WT, G12C/D/V, G13D, HRAS, and NRAS (Procedure A)
(§2) Recombinant KRAS-G12C protein used in this assay has an additional triple mutation (C51S/C80L/C118S). Whereas KRAS-WT, G12D/V, G13D, HRAS and NRAS are in context of their WT protein sequence background. Specifically, the SOS-catalyzed nucleotide exchange assay utilizes a preformed TR-FRET complex containing a specific biotinylated RAS protein (KRAS-WT, G12C/V/D, G13D, HRAS, NRAS; described above) with Bodipy-GDP, and Terbium-streptavidin. Compounds are preincubated with this complex for 60 minutes. Subsequently, recombinant human SOS protein and unlabeled GTP are added to initiate the exchange reaction. Small molecule inhibitors stabilize the Bodipy-GDP complex whereas the untreated protein rapidly exchanges Bodipy-GDP for unlabeled GTP resulting in reduced TR-FRET signal.
(§3) To assemble the preformed TR-FRET complexes, each biotinylated RAS protein is diluted to 2 μM in an EDTA Buffer (20 mM HEPES pH 7.5, 50 mM sodium chloride, 10 mM EDTA, and 0.01% Tween) and incubated at room temperature for one hour. This mixture is then further diluted to 90 nM in an Assay Buffer (20 mM HEPES pH 7.5, 150 mM sodium chloride, 10 mM magnesium chloride, and 0.005% Tween) containing 15 nM of Terbium-Streptavidin (Invitrogen, catalog #PV3577) and 900 nM of Bodipy-GDP (Invitrogen, catalog #G22360) and incubated at room temperature for six hours. It should be noted that this preformed TR-FRET complex for each of the RAS protein were made ahead of time, aliquoted and stored at −80° C. until the day of the experiment.
(§4) Each test compound (10 mM stock in DMSO) is diluted in DMSO to make a final-10-point, 3-fold dilution and is acoustically dispensed into a 384-well assay plate (Corning, catalog #3820) using an Echo 550 (Labcyte). Each well of the assay plate receives 3 μL of a specific 3×RAS preformed TR-FRET complex and 3 μL of Assay Buffer and is incubated at room temperature for 60 minutes (preincubation time). Each well then receives 3 μL of 3× recombinant human SOS protein and GTP (Sigma, G8877) in Assay Buffer and is incubated at room temperature for 30 minutes (G13D), 60 minutes (KRAS WT/G12C/D, H/NRAS) or 90 minutes for G12V. The final reaction in each well of 9 μL consists of 3 mM GTP, specific Ras and SOS proteins in the following concentrations: KRAS-G12C/SOS=3 nM/40 nM, KRAS-WT and G12D/SOS=1 nM/40 nM, KRAS-G12V/SOS=1.25 nM/160 nM, KRAS-G13D/SOS=1.25 nM/0 nM, HRAS and NRAS=1.25 nM/40 nM.
(§5) The time-resolved fluorescence resonance energy transfer (TR-FRET) signal is measured on an Envision (PerkinElmer) plate reader: Excitation filter=340 nm; emission1=495 nm; emission2=520 nm; dichroic mirror=D400/D505; delay time=[…]. The signal of each well is determined as the ratio of the emission at 520 nm to that at 495 nm. Percent effect of each well is determined after normalization to control wells containing DMSO (no effect) or a saturating concentration of inhibitor (max effect). The apparent effect as a function of compound concentration is fit to a four-parameter logistic equation.
(§6) For Example No. 14, nucleotide exchange assays for KRAS G12D, WT, G12C, and G12V were performed according to Procedure B. All the other compounds were tested according to Procedure A.

The target in assay [2] is KRAS WT (Homo sapiens, UniProt P01116). Briefly: SOS-catalyzed nucleotide exchange assay, KRAS WT (Procedure A). The assay is classed as biochemical. Particulars: GNE.
From the text: as §1, §2, §3, §4, §5, §6

Assay [3] has as its target KRAS G12V (Homo sapiens, UniProt P01116, G12V). Briefly: SOS-catalyzed nucleotide exchange assay, KRAS G12V (Procedure A). The assay is classed as biochemical. The settings on record: GNE.
From the text: as §1, §2, §3, §4, §5, §6

Assay [4] has as its target T1, AsPC-1 cells (Homo sapiens, UniProt P01116, G12D).
T1 construct: p-ERK/total ERK AlphaSureFire read-out
The assay can be described thus: Cellular phospho-ERK assay, AsPC-1 cells (KRAS G12D). The assay is classed as cell-based. Particulars: 2 hours, read-out: AsPC1 pERK IC50. Here is the method:
Procedure for Cellular Phospho-ERK Assay in KRAS Wild Type and Mutant (G12D, G12V) Cell Lines
PANC08.13 cells (ATCC® CRL-2551™), containing homozygous KRAS-G12D activating mutation, were cultured in growth medium made of RPMI1640-GlutaMAX™-I (ThermoFisher Scientific 61870) containing 15% heat inactivated fetal bovine serum (ThermoFisher Scientific 10091148)). AsPC-1 cells (ATCC® CRL-1682™), containing homozygous KRAS-G12D activating mutation, were cultured in T150 flask in growth medium (RPMI medium 1640-GlutaMAX™-I (ThermoFisher Scientific 61870) containing 10% fetal bovine serum (ThermoFisher Scientific 10091148)).
Cells for the assay were harvested in growth medium after TrypLE (ThermoFisher scientific 12604021) digestion and were seeded in a 384-well collagen coated cell culture plate (Corning 356702) at a density of 10,000-15,000 cells/20 μL/well, and incubated at 37° C., 5% CO2 overnight. The compound (with 10 mM stock concentration) dose-response titrations were prepared [30 μM final ERK detection assay concentration and 1:3 dilutions, 10-point dose response] and appropriate amounts (270 nL) of test compounds were dispensed in a 384-well intermediate plate using an Echo 550 liquid handler. 30 μL/well of RPMI medium 1640-GlutaMAX™-I was added to the intermediate plate and the contents of the intermediate plate (10 μL/well) were then transferred to the 384-well collagen coated cell culture plate, which was incubated at 37° C., 5% CO2 for 2 hours. After removal of medium from the collagen coated cell culture plate, cells were lysed in lysis buffer from Alpha SureFire® Ultra™ Multiplex p-ERK and total ERK assay kit (PerkinElmer MPSU-PTERK) containing Halt™ Protease and Phosphatase inhibitor cocktail (ThermoFisher Scientific 78446) at room temperature with constant shaking at 300 rpm for 30 minutes. The cell lysates were then transferred to an OptiPlate-384 plate (PerkinElmer 6005620), and the phosphorylation of ERK (p-ERK) and total ERK levels were detected by Alpha SureFire® Ultra™ Multiplex p-EEK kit and total ERK assay kit (PerkinElmer MPSU-PTERK) following the manufacturer's protocol. Assay plates were read on a EnVision Multimode Plate Reader (PerkinElmer), and the ratio of p-ERK vs. total ERK in each well was used as the final readout. Dose response curves were analyzed using a 4-parameter logistic model to calculate IC50 values using Spotfire software.

T1 sequence (P01116 1-188 isoform P01116-2 G12D): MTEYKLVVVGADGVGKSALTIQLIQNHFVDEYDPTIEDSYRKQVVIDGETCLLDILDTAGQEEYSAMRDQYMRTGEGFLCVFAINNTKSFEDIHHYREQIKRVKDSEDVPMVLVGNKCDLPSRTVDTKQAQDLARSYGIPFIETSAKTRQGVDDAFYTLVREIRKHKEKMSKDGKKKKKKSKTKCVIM
Chain of KRAS G12D (P01116 with tags, fused parts or gaps isoform P01116-2 G12D): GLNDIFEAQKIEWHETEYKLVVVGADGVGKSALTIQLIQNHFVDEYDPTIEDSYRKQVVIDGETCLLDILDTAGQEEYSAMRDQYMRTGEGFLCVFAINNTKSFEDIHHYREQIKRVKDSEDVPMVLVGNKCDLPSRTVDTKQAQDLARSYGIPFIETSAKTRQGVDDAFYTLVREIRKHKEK
Chain of KRAS WT (P01116 with tags, fused parts or gaps isoform P01116-2): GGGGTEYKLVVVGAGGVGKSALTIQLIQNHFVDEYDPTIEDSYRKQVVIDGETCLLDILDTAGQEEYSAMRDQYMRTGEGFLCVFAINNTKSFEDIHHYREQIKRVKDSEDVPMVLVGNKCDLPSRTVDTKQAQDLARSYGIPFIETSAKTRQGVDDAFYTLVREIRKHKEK
Chain of KRAS G12V (P01116 with tags, fused parts or gaps isoform P01116-2 G12V): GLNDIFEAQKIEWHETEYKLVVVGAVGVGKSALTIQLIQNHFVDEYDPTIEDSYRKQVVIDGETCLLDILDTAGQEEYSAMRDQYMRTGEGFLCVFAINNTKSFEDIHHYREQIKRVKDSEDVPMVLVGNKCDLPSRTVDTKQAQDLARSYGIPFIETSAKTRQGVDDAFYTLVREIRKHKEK

For the compound `C#Cc1c(F)ccc2cc3[nH]ncc3c(-c3nccc4c3sc3nc(OCC5(CN6CC[C@@H](F)C6)CC5)nc(N5C[C@H]6CC[C@@H](C5)N6)c34)c12` [Ex-94, 4-((1R,5S)-3,8-diazabicyclo[3.2.1]octan-3-yl)-8-(5-ethynyl-6-fluoro-1H-benzo[f]indazol-4-yl)-2-((1-(((R)-3-fluoropyrrolidin-1-yl)methyl)cyclopropyl)methoxy)pyrido[4′,3′: 4,5]thieno[2,3-d]pyrimidine], the IC50 – broadly, the concentration that gives 50% inhibition – in assay [1] was found to be 0.00299 µM; in assay [2], 0.847 µM; in assay [3], 1.95 µM; in assay [4], 0.0859 µM.

Turning to `Cc1cc2[nH]ncc2c(-c2nccc3c2sc2nc(OCC45COC(C4)C5)nc(N4C[C@H]5CC[C@@H](C4)N5)c23)c1C(F)(F)F` [Ex-43, 2-((2-oxabicyclo[2.1.1]hexan-4-yl)methoxy)-4-((1R,5S)-3,8-diazabicyclo[3.2.1]octan-3-yl)-8-(6-methyl-5-(trifluoromethyl)-1H-indazol-4-yl)pyrido[4′,3′:4,5]thieno[2,3-d]pyrimidine], the IC50 in assay [1] came out at 2.18 µM; in assay [4], 6.83 µM.

Consider `COC1(COc2nc(N3C[C@H]4CC[C@@H](C3)N4)c3c(n2)sc2c(-c4c(C(F)(F)F)c(C)cc5[nH]ncc45)nccc23)CCOC1` (stereo partly drawn) [Ex-44, 4-((1R,5S)-3,8-diazabicyclo[3.2.1]octan-3-yl)-2-((3-methoxytetrahydrofuran-3-yl)methoxy)-8-(6-methyl-5-(trifluoromethyl)-1H-indazol-4-yl)pyrido[4′,3′:4,5]thieno[2,3-d]pyrimidine], for which the IC50 turned out to be 2.64 µM in assay [1] and 4.67 µM in assay [4].

On to `Cc1cc2[nH]ncc2c(-c2nccc3c2sc2nc(OC[C@H]4C[C@H](C#N)C4)nc(N4C[C@H]5CC[C@@H](C4)N5)c23)c1C(F)(F)F` [Ex-45, (1R,3r)-3-(((4-((1R,5S)-3,8-diazabicyclo[3.2.1]octan-3-yl)-8-(6-methyl-5-(trifluoromethyl)-1H-indazol-4-yl)pyrido[4′,3′:4,5]thieno[2,3-d]pyrimidin-2-yl)oxy)methyl)cyclobutane-1-carbonitrile], for which the IC50 in assay [1] came to 3.01 µM; in assay [4], 4.87 µM.

Turning to `Cc1cc2[nH]ncc2c(-c2nccc3c2sc2nc(OCC4COC(C)(C)CO4)nc(N4C[C@H]5CC[C@@H](C4)N5)c23)c1C(F)(F)F` (stereo partly drawn) [Ex-48, 4-((1R,5S)-3,8-diazabicyclo[3.2.1]octan-3-yl)-2-((5,5-dimethy1-1,4-dioxan-2-yl)methoxy)-8-(6-methy1-5-(trifluoromethyl)-1H-indazol-4-yl)pyrido[4′,3′:4,5]thieno[2,3-d]pyrimidine], the results for the IC50 in assay [1] and in assay [4] were 3.35 µM and 14.9 µM, respectively.

`Cc1cc2[nH]ncc2c(-c2nccc3c2sc2nc(OC[C@H]4CCCO4)nc(N4C[C@H]5CC[C@@H](C4)N5)c23)c1C(F)(F)F` [Ex-47, 4-((1R,5S)-3,8-diazabicyclo[3.2.1]octan-3-yl)-8-(6-methyl-5-(trifluoromethyl)-1H-indazol-4-yl)-2-(((R)-tetrahydrofuran-2-yl)methoxy)pyrido[4′,3′:4,5]thi-eno[2,3-d]pyrimidine]: the half-inhibitory concentration (IC50) was 3.13 µM in assay [1] and 11.3 µM in assay [4].

Consider `Cc1cc2[nH]ncc2c(-c2nccc3c2sc2nc(OCC4(C#N)CCOC4)nc(N4C[C@H]5CC[C@@H](C4)N5)c23)c1C(F)(F)F` (stereo partly drawn) [Ex-49, 3-(((4-((1R,5S)-3,8-diazabicyclo[3.2.1]octan-3-yl)-8-(6-methyl-5-(trifluoromethyl)-1H-indazol-4-yl)pyrido[4′,3′:4,5]thieno[2,3-d]pyrimidin-2-yl)oxy)methyl)tetrahydrofuran-3-carbonitrile], for which the values for the IC50 in assay [1] and in assay [4] were 1.46 µM and 5.98 µM, respectively.

`Cc1cc2[nH]ncc2c(-c2nccc3c2sc2nc(OCC4(C)CCCO4)nc(N4C[C@H]5CC[C@@H](C4)N5)c23)c1C(F)(F)F` (stereo partly drawn) [Ex-46, 4-((1R,5S)-3,8-diazabicyclo[3.2.1]octan-3-yl)-8-(6-methy1-5-(trifluoromethyl)-1H-indazol-4-yl)-2-((2-methyltetrahydrofuran-2-yl)methoxy)pyrido[4′,3′:4,5]thi-eno[2,3-d]pyrimidine]: the IC50 in assay [1] came to 2.81 µM; in assay [4], 12.6 µM.

`Cc1cc2[nH]ncc2c(-c2nccc3c2sc2nc(OCC4CCCN(S(C)(=O)=O)C4)nc(N4C[C@H]5CC[C@@H](C4)N5)c23)c1C(F)(F)F` (stereo partly drawn) [Ex-50, 4-((1R,5S)-3,8-diazabicyclo[3.2.1]octan-3-yl)-8-(6-methyl-5-(trifluoromethyl)-1H-indazol-4-yl)-2-((1-(methylsulfonyl)piperidin-3-yl)methoxy)pyrido[4′,3′:4,5]thi-eno[2,3-d]pyrimidine]: the concentration for half-maximal inhibition (IC50) in assay [1] was 2.38 µM; in assay [4], over 30 µM.

With `CCOC1(COc2nc(N3C[C@H]4CC[C@@H](C3)N4)c3c(n2)sc2c(-c4c(C(F)(F)F)c(C)cc5[nH]ncc45)nccc23)CCOC1` (stereo partly drawn) [Ex-42, 4-((1R,5S)-3,8-diazabicyclo[3.2.1]octan-3-yl)-2-((3-ethoxytetrahydrofuran-3-yl)methoxy)-8-(6-methyl-5-(trifluoromethyl)-1H-indazol-4-yl)pyrido[4′,3′:4,5]thieno[2,3-d]pyrimidine], the values for the IC50 in assay [1] and in assay [4] were 3.1 µM and 6.52 µM, respectively.

For the compound `Cc1cc2[nH]ncc2c(-c2nccc3c2sc2nc(OCCC4CCS(=O)(=O)CC4)nc(N4C[C@H]5CC[C@@H](C4)N5)c23)c1C(F)(F)F` [Ex-41, 4-(2-((4-((1R,5S)-3,8-diazabicyclo[3.2.1]octan-3-yl)-8-(6-methyl-5-(trifluoromethyl)-1H-indazol-4-yl)pyrido[4′,3′:4,5]thieno[2,3-d]pyrimidin-2-yl)oxy)ethyl)tetrahydro-2H-thiopyran 1,1-dioxide], the figures for the IC50 in assay [1] and in assay [4] were 4.64 µM and over 30 µM, respectively.
